What was measured:
[1] = Leaching: 10 grams fabric in 100 milliliters distilled water, 7 days, GC-MS; assay type: physicochemical
Protocol: To test for a potential leaching of the antimicrobial agents fixed to the textile material, the following test was performed. A test fabric of polyester 65%/cotton 35% with 210 g/m2 was treated with polyhexamethylenebiguanide (PHMB) 0.5%, silver chloride 0.075%, octadecylaminomethyl trihydroxysilylpropyl ammonium chloride (organosilane) 0.4%, and propiconazole 0.5%
The treated textile material was put into distilled water at a ratio of 1:10. Specifically, a fabric of 10 grams was soaked in 100 milliliters of distilled water. The fabric was incubated in the water for 7 days at room temperature, i.e. between 21 and 25° C.
Following said incubation time, the fabric was removed from the water and the exposed water was tested for the presence of the above five active ingredients using gas chromatography-mass spectrometry (GC-MS).

[2] = Leaching test: 100 g fabric soaked in 10 liters stagnant distilled water, 3 days (72 hours); assay type: physicochemical; conditions: for Leaching of active ingredients: exhaust 80° C. 60 min, cured 180° C. 2 min, post wash
Protocol: (§1) The test procedure for leaching was as follows: 100 g (grams) of fabric as well as control fabrics were soaked in 10 liters of stagnant distilled water in a closed wide mouth jar. After 3 days (72 hours), the water samples were tested for leached substances as per standard analytical methods.
as §1, with “methods. A weight of 100 g fabric was chosen because in the preferred embodiment of the water filter as described further below, each filter comprises a strip of fabric with 210 g/m^2, 3 meters long and 0.16 meters wide, which corresponds to 100 g of fabric.” for “methods.”

CCCCCCCCCCCCCCCCCC[N+](C)(C)CCC[Si](OC)(OC)OC [Organosilane, dimethyloctadecyl[3-(trimethoxysilyl)propyl] ammonium chloride]
Extracted water Conc, ppm [1]: BDL (BDL-below detection limit Detection limit: 1 parts per million (ppm)) | Leaching of active ingredients (in ppm) ([2]; 0.2% each in mixture (o.w.f), exhaust 80° C., 60 min, curing 180° C., 2 min, unwashed): 7 ppm | Leaching of active ingredients (in ppm) ([2]; 0.5% each in mixture (o.w.f), exhaust 80° C., 60 min, curing 180° C., 2 min, unwashed): 9 ppm | Leaching of active ingredients (in ppm) ([2]; 1.0% each in mixture (o.w.f), exhaust 80° C., 60 min, curing 180° C., 2 min, unwashed): 17 ppm | Leeching in ppm ([2]; Exhaust + Wash + pad + Wash, exhaust 0.1% o.w.f. each in mixture, 1 gm/liter pad): 0.1 ppm | Leeching in ppm ([2]; Exhaust + Wash + pad + Wash, exhaust 0.1% o.w.f. each in mixture, 5 gm/liter pad): 0.2 ppm | Leeching in ppm ([2]; Exhaust + Wash + pad + Wash, exhaust 0.1% o.w.f. each in mixture, 10 gm/liter pad): 0.4 ppm | Leeching in ppm ([2]; Exhaust + Wash + pad + Wash, exhaust 0.25% o.w.f. each in mixture, 1 gm/liter pad): 1 ppm | Leeching in ppm ([2]; Exhaust + Wash + pad + Wash, exhaust 0.25% o.w.f. each in mixture, 5 gm/liter pad): 2 ppm | Leeching in ppm ([2]; Exhaust + Wash + pad + Wash, exhaust 0.25% o.w.f. each in mixture, 10 gm/liter pad): 5 ppm | Leeching in ppm ([2]; Exhaust + Wash + pad + Wash, exhaust 0.5 (% o.w.f) each in mixture, 1 gm/liter pad): 3 ppm | Leeching in ppm ([2]; Exhaust + Wash + pad + Wash, exhaust 0.5 (% o.w.f) each in mixture, 5 gm/liter pad): 7 ppm | Leeching in ppm ([2]; Exhaust + Wash + pad + Wash, exhaust 0.5 (% o.w.f) each in mixture, 10 gm/liter pad): 9 ppm | Leeching in ppm ([2]; Exhaust + Wash + pad + Wash, exhaust 1.0% o.w.f. each in mixture, 1 gm/liter pad): 9 ppm | Leeching in ppm ([2]; Exhaust + Wash + pad + Wash, exhaust 1.0% o.w.f. each in mixture, 5 gm/liter pad): 10 ppm | Leeching in ppm ([2]; Exhaust + Wash + pad + Wash, exhaust 1.0% o.w.f. each in mixture, 10 gm/liter pad): 15 ppm | Leeching in ppm ([2]; Exhaust + pad + Wash, exhaust 0.1% o.w.f. each in mixture, 1 gm/liter pad): 143 ppm | Leeching in ppm ([2]; Exhaust + pad + Wash, exhaust 0.1% o.w.f. each in mixture, 5 gm/liter pad): 238 ppm | Leeching in ppm ([2]; Exhaust + pad + Wash, exhaust 0.1% o.w.f. each in mixture, 10 gm/liter pad): 249 ppm | Leeching in ppm ([2]; Exhaust + pad + Wash, exhaust 0.25% o.w.f. each in mixture, 1 gm/liter pad): 265 ppm | Leeching in ppm ([2]; Exhaust + pad + Wash, exhaust 0.25% o.w.f. each in mixture, 5 gm/liter pad): 249 ppm | Leeching in ppm ([2]; Exhaust + pad + Wash, exhaust 0.25% o.w.f. each in mixture, 10 gm/liter pad): 523 ppm | Leeching in ppm ([2]; Exhaust + pad + Wash, exhaust 0.5 (% o.w.f) each in mixture, 1 gm/liter pad): 432 ppm | Leeching in ppm ([2]; Exhaust + pad + Wash, exhaust 0.5 (% o.w.f) each in mixture, 5 gm/liter pad): 587 ppm | Leeching in ppm ([2]; Exhaust + pad + Wash, exhaust 0.5 (% o.w.f) each in mixture, 10 gm/liter pad): 637 ppm | Leeching in ppm ([2]; Exhaust + pad + Wash, exhaust 1.0% o.w.f. each in mixture, 1 gm/liter pad): 536 ppm | Leeching in ppm ([2]; Exhaust + pad + Wash, exhaust 1.0% o.w.f. each in mixture, 5 gm/liter pad): 657 ppm | Leeching in ppm ([2]; Exhaust + pad + Wash, exhaust 1.0% o.w.f. each in mixture, 10 gm/liter pad): 856 ppm | Leeching in ppm ([2]; Exhaust + pad, exhaust 0.1% o.w.f. each in mixture, 1 gm/liter pad): 198 ppm | Leeching in ppm ([2]; Exhaust + pad, exhaust 0.1% o.w.f. each in mixture, 5 gm/liter pad): 275 ppm | Leeching in ppm ([2]; Exhaust + pad, exhaust 0.1% o.w.f. each in mixture, 10 gm/liter pad): 374 ppm | Leeching in ppm ([2]; Exhaust + pad, exhaust 0.25% o.w.f. each in mixture, 1 gm/liter pad): 315 ppm | Leeching in ppm ([2]; Exhaust + pad, exhaust 0.25% o.w.f. each in mixture, 5 gm/liter pad): 353 ppm | Leeching in ppm ([2]; Exhaust + pad, exhaust 0.25% o.w.f. each in mixture, 10 gm/liter pad): 356 ppm | Leeching in ppm ([2]; Exhaust + pad, exhaust 0.5 (% o.w.f) each in mixture, 1 gm/liter pad): 347 ppm | Leeching in ppm ([2]; Exhaust + pad, exhaust 0.5 (% o.w.f) each in mixture, 5 gm/liter pad): 462 ppm | Leeching in ppm ([2]; Exhaust + pad, exhaust 0.5 (% o.w.f) each in mixture, 10 gm/liter pad): 823 ppm | Leeching in ppm ([2]; Exhaust + pad, exhaust 1.0% o.w.f. each in mixture, 1 gm/liter pad): 584 ppm | Leeching in ppm ([2]; Exhaust + pad, exhaust 1.0% o.w.f. each in mixture, 5 gm/liter pad): 782 ppm | Leeching in ppm ([2]; Exhaust + pad, exhaust 1.0% o.w.f. each in mixture, 10 gm/liter pad): 1243 ppm | Leeching in ppm ([2]; Exhaust +Wash + pad, exhaust 0.1% o.w.f. each in mixture, 1 gm/liter pad): 87 ppm | Leeching in ppm ([2]; Exhaust +Wash + pad, exhaust 0.1% o.w.f. each in mixture, 5 gm/liter pad): 158 ppm | Leeching in ppm ([2]; Exhaust +Wash + pad, exhaust 0.1% o.w.f. each in mixture, 10 gm/liter pad): 231 ppm | Leeching in ppm ([2]; Exhaust +Wash + pad, exhaust 0.25% o.w.f. each in mixture, 1 gm/liter pad): 186 ppm | Leeching in ppm ([2]; Exhaust +Wash + pad, exhaust 0.25% o.w.f. each in mixture, 5 gm/liter pad): 214 ppm | Leeching in ppm ([2]; Exhaust +Wash + pad, exhaust 0.25% o.w.f. each in mixture, 10 gm/liter pad): 327 ppm | Leeching in ppm ([2]; Exhaust +Wash + pad, exhaust 0.5 (% o.w.f) each in mixture, 1 gm/liter pad): 375 ppm | Leeching in ppm ([2]; Exhaust +Wash + pad, exhaust 0.5 (% o.w.f) each in mixture, 5 gm/liter pad): 432 ppm | Leeching in ppm ([2]; Exhaust +Wash + pad, exhaust 0.5 (% o.w.f) each in mixture, 10 gm/liter pad): 564 ppm | Leeching in ppm ([2]; Exhaust +Wash + pad, exhaust 1.0% o.w.f. each in mixture, 1 gm/liter pad): 495 ppm | Leeching in ppm ([2]; Exhaust +Wash + pad, exhaust 1.0% o.w.f. each in mixture, 5 gm/liter pad): 534 ppm | Leeching in ppm ([2]; Exhaust +Wash + pad, exhaust 1.0% o.w.f. each in mixture, 10 gm/liter pad): 645 ppm | Leaching of active ingredients (in ppm) ([2]; exhaust 60° C., solution dosage 1% o.w.f, process time 60 min): 23 ppm | Leaching of active ingredients (in ppm) ([2]; exhaust 60° C., solution dosage 1% o.w.f, process time 90 min): 14 ppm | Leaching of active ingredients (in ppm) ([2]; exhaust 60° C., solution dosage 1% o.w.f, process time 120 min): 14 ppm | Leaching of active ingredients (in ppm) ([2]; exhaust 60° C., solution dosage 1% o.w.f, process time 180 min): 12 ppm | Leaching of active ingredients (in ppm) ([2]; exhaust 60° C., solution dosage 1% o.w.f, process time 240 min): 14 ppm | Leaching of active ingredients ([2]; mixture 0.2% o.w.f. each): 0.2 ppm | Leaching of active ingredients ([2]; mixture 0.5% o.w.f. each): 0.3 ppm | Leaching of active ingredients ([2]; mixture 1% o.w.f. each): 0.7 ppm | Leaching of active ingredients (in ppm) ([2]; exhaust 80° C., 1% o.w.f, 60 min, curing 170° C., curing dwell time 0.5 min): 29 ppm | Leaching of active ingredients (in ppm) ([2]; exhaust 80° C., 1% o.w.f, 60 min, curing 170° C., curing dwell time 1.0 min): 25 ppm | Leaching of active ingredients (in ppm) ([2]; exhaust 80° C., 1% o.w.f, 60 min, curing 170° C., curing dwell time 1.5 min): 22 ppm | Leaching of active ingredients (in ppm) ([2]; exhaust 80° C., 1% o.w.f, 60 min, curing 170° C., curing dwell time 2.0 min): 13 ppm | Leaching of active ingredients (in ppm) ([2]; exhaust 80° C., 1% o.w.f, 60 min, curing 170° C., curing dwell time 2.5 min): 17 ppm | Leaching of active ingredients (in ppm) ([2]; exhaust 80° C., 1% o.w.f, 60 min, curing 170° C., curing dwell time 3.0 min): 17 ppm | Leaching of active ingredients (in ppm) ([2]; exhaust 80° C., 1% o.w.f, 60 min, curing 180° C., curing dwell time 0.5 min): 23 ppm | Leaching of active ingredients (in ppm) ([2]; exhaust 80° C., 1% o.w.f, 60 min, curing 180° C., curing dwell time 1.0 min): 13 ppm | Leaching of active ingredients (in ppm) ([2]; exhaust 80° C., 1% o.w.f, 60 min, curing 180° C., curing dwell time 1.5 min): 14 ppm | Leaching of active ingredients (in ppm) ([2]; exhaust 80° C., 1% o.w.f, 60 min, curing 180° C., curing dwell time 2.0 min): 2 ppm | Leaching of active ingredients (in ppm) ([2]; exhaust 80° C., 1% o.w.f, 60 min, curing 180° C., curing dwell time 2.5 min): 12 ppm | Leaching of active ingredients (in ppm) ([2]; exhaust 80° C., 1% o.w.f, 60 min, curing 180° C., curing dwell time 3.0 min): 12 ppm | Leaching of active ingredients (in ppm) ([2]; exhaust 80° C., 1% o.w.f, 60 min, curing dwell time at 190° C. (title): 0.5 min): 19 ppm | Leaching of active ingredients (in ppm) ([2]; exhaust 80° C., 1% o.w.f, 60 min, curing dwell time at 190° C. (title): 1.0 min): 12 ppm | Leaching of active ingredients (in ppm) ([2]; exhaust 80° C., 1% o.w.f, 60 min, curing dwell time at 190° C. (title): 1.5 min): 11 ppm | Leaching of active ingredients (in ppm) ([2]; exhaust 80° C., 1% o.w.f, 60 min, curing dwell time at 190° C. (title): 2.0 min): 11 ppm | Leaching of active ingredients (in ppm) ([2]; exhaust 80° C., 1% o.w.f, 60 min, curing dwell time at 190° C. (title): 2.5 min): 25 ppm

Source: patent US20210254272A1, “TEXTILES HAVING ANTIMICROBIAL PROPERTIES” (Livinguard AG, priority 2015, published 2021)
